Experiment: recombinant barcode read abundance after kanamycin selection (control-corrected) (log10(CPM+1)); higher = more efficient recombination; sequences stand for … in AGTGCAGAGAAAATCGGCCAGTTTTCTCTGCCTGCAGTCCGCATGCCGT…AGATTTATGCAGCGGACTGCCTTTCTCCCAAAGTGATAAACCGGACAGTATCATGGACCGGTTTTCCCGGTAATCCGTATTTGCAAGGTTGGTTTCACT; site = the 11-nt target
In short: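 Targets and IS621 bridge RNA target-binding loops were paired in oligos, each with a promoter, a barcode and the J23119-driven first 104 bridge RNA bases. A vector carrying the remaining 73 bp and a T7-inducible recombinase received these by Gibson cloning, and the pool was co-electroporated into E. coli with a donor plasmid. Duplicate plates contained chloramphenicol/ampicillin LB agar (control) or chloramphenicol/ampicillin/kanamycin with 0.1 mM IPTG. Recombination efficiency comes from averaged, control-corrected counts per million of recombinant-junction barcodes, reported as log10(CPM+1).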
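Note: IS621 recombinase and bridge RNA in Escherichia coli cells.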

Sequence	recombinant barcode read abundance (log10)
CAGGTGCCTTGGGTTCTAACCTGTTGCCT (site CAGGTGCCTAG)	2.25
CAGGTGCCTTGGGTTCTAACCTGTTGCCT (site CCGGTGCCTAG)	0.216
CAGGTGCCTTGGGTTCTAACCTGTTGCCT (site CGGGTGCCTAG)	0.122
CAGGTGCCTTGGGTTCTAACCTGTTGCCT (site CTGGTGCCTAG)	0.526
CAGTAGTCTTGGGTTCTAACCTGTTGCCT (site CAGTAATCTAG)	0.579
CAGTAGTCTTGGGTTCTAACCTGTTGCCT (site CAGTACTCTAG)	0.155
CAGTAGTCTTGGGTTCTAACCTGTTGCCT (site CAGTAGTCTAG)	1.07
CAGTAGTCTTGGGTTCTAACCTGTTGCCT (site CAGTATTCTAG)	0.0913
CAGTATTCTTGGGTTCTAACCTGTTGCCT (site CAGTAATCTAG)	0.0186
CAGTATTCTTGGGTTCTAACCTGTTGCCT (site CAGTACTCTAG)	0.116
CAGTATTCTTGGGTTCTAACCTGTTGCCT (site CAGTAGTCTAG)	0.0496
CAGTATTCTTGGGTTCTAACCTGTTGCCT (site CAGTATTCTAG)	0.702
CAGTCTACTTGGGTTCTAACCTGTTGCGT (site CAGTCTACTAC)	0.308
CAGTCTACTTGGGTTCTAACCTGTTGCGT (site TCAAGCCCTCT)	0.292
CAGTCTGCTTGGGTTCTAACCTGTTGCCT (site CAATCTGCTAG)	0.141
CAGTCTGCTTGGGTTCTAACCTGTTGCCT (site CACTCTGCTAG)	0.0321
CAGTCTGCTTGGGTTCTAACCTGTTGCCT (site CAGTCTGCTAG)	0.512
CAGTCTGCTTGGGTTCTAACCTGTTGCCT (site CATTCTGCTAG)	0.182
CAGTTAGCTTGGGTTCTAACCTGTTGCCT (site CAGTTAGCTAG)	0.642
CAGTTAGCTTGGGTTCTAACCTGTTGCCT (site CAGTTCGCTAG)	0.182
CAGTTAGCTTGGGTTCTAACCTGTTGCCT (site CAGTTGGCTAG)	0.0405
CAGTTAGCTTGGGTTCTAACCTGTTGCCT (site CAGTTTGCTAG)	0.192

Sequence	recombinant barcode read abundance (log10)
CAGTTGGCTTGGGTTCTAACCTGTTGCCT (site CAGTTAGCTAG)	0.04
CAGTTGGCTTGGGTTCTAACCTGTTGCCT (site CAGTTCGCTAG)	0.0864
CAGTTGGCTTGGGTTCTAACCTGTTGCCT (site CAGTTGGCTAG)	1.01
CAGTTGGCTTGGGTTCTAACCTGTTGCCT (site CAGTTTGCTAG)	0.232
CATAGACCTTGGGTTCTAACCTGTTGCAT (site CATAGACCTAT)	1.82
CATAGACCTTGGGTTCTAACCTGTTGCAT (site CATAGCCCTAT)	0.0625
CATAGACCTTGGGTTCTAACCTGTTGCAT (site CATAGGCCTAT)	0.0233
CATAGACCTTGGGTTCTAACCTGTTGCAT (site CATAGTCCTAT)	0.0411
CATAGACCTTGGGTTCTAACCTGTTGCCT (site CATAGACCTAG)	1.45
CATAGACCTTGGGTTCTAACCTGTTGCCT (site GATAGACCTAG)	0.00901
CATAGATCTTGGGTTCTAACCTGTTGCTT (site CAAAGATCTAA)	0.271
CATAGATCTTGGGTTCTAACCTGTTGCTT (site CACAGATCTAA)	0.385
CATAGATCTTGGGTTCTAACCTGTTGCTT (site CAGAGATCTAA)	0.0253
CATAGATCTTGGGTTCTAACCTGTTGCTT (site CATAGATCTAA)	0.119
CATAGCCCTTGGGTTCTAACCTGTTGCAT (site CATAGACCTAT)	0.176
CATAGCCCTTGGGTTCTAACCTGTTGCAT (site CATAGCCCTAT)	1.11
CATAGCCCTTGGGTTCTAACCTGTTGCAT (site CATAGGCCTAT)	0.117
CATAGCCCTTGGGTTCTAACCTGTTGCAT (site CATAGTCCTAT)	0.0192
CATATCCCTTGGGTTCTAACCTGTTGCAT (site CATATCCCTAT)	1.33
CATATCCCTTGGGTTCTAACCTGTTGCAT (site CTAATCCCTAT)	0.03
CATATGACTTGGGTTCTAACCTGTTGCCT (site CATATGACTAG)	1.2
CATATGACTTGGGTTCTAACCTGTTGCCT (site TCAGGAGCTTA)	0.126

Sequence	recombinant barcode read abundance (log10)
CATCATTCTTGGGTTCTAACCTGTTGCCT (site CATAATTCTAG)	0.144
CATCATTCTTGGGTTCTAACCTGTTGCCT (site CATCATTCTAG)	0.215
CATCATTCTTGGGTTCTAACCTGTTGCCT (site CATGATTCTAG)	0.118
CATCATTCTTGGGTTCTAACCTGTTGCCT (site CATTATTCTAG)	0
CATCCGACTTGGGTTCTAACCTGTTGCCT (site CATCCGACTAG)	0.92
CATCCGACTTGGGTTCTAACCTGTTGCCT (site CATCCGCCTAG)	0.163
CATCCGACTTGGGTTCTAACCTGTTGCCT (site CATCCGGCTAG)	0.33
CATCCGACTTGGGTTCTAACCTGTTGCCT (site CATCCGTCTAG)	0.0237
CATCCTCCTTGGGTTCTAACCTGTTGCTG (site CATCCTACTCC)	0.463
CATCCTCCTTGGGTTCTAACCTGTTGCTG (site CATCCTCCTCA)	0.666
CATCGGACTTGGGTTCTAACCTGTTGCAA (site CATCGGACTTT)	1.14
CATCGGACTTGGGTTCTAACCTGTTGCAA (site GGCTAACCTAG)	0.336
CATGACACTTGGGTTCTAACCTGTTGCCT (site CATGACACTAG)	2.45
CATGACACTTGGGTTCTAACCTGTTGCCT (site CATGCCGCTAG)	0.0486
CATGCTACTTGGGTTCTAACCTGTTGCTC (site CATGCGACTCA)	0.191
CATGCTACTTGGGTTCTAACCTGTTGCTC (site CATGCTACTGA)	0.627
CATGTGCCTTGGGTTCTAACCTGTTGCCT (site CATGTGCCTAG)	1.89
CATGTGCCTTGGGTTCTAACCTGTTGCCT (site TATGCGCCTAG)	0.329
CATTATCCTTGGGTTCTAACCTGTTGCGT (site CATTATCCTAC)	1.59
CATTATCCTTGGGTTCTAACCTGTTGCGT (site CATTGTCCTAC)	0.0752
CATTCCTCTTGGGTTCTAACCTGTTGCCT (site CATTCCTCTAG)	0.0779
CATTCCTCTTGGGTTCTAACCTGTTGCCT (site CCTTCCTCTAG)	0.122

Sequence	recombinant barcode read abundance (log10)
CATTCCTCTTGGGTTCTAACCTGTTGCCT (site CGTTCCTCTAG)	0.0677
CATTCCTCTTGGGTTCTAACCTGTTGCCT (site CTTTCCTCTAG)	0.0613
CATTCGCCTTGGGTTCTAACCTGTTGCGT (site CATTCGCCTAC)	0.329
CATTCGCCTTGGGTTCTAACCTGTTGCGT (site TGGCTAGCTGT)	0.138
CATTGCCCTTGGGTTCTAACCTGTTGCCT (site CATTGCCCTAG)	0.234
CATTGCCCTTGGGTTCTAACCTGTTGCCT (site CCTTGCCCTAG)	0.2
CATTGCCCTTGGGTTCTAACCTGTTGCCT (site CGTTGCCCTAG)	0.242
CATTGCCCTTGGGTTCTAACCTGTTGCCT (site CTTTGCCCTAG)	0.0205
CATTGGACTTGGGTTCTAACCTGTTGCTT (site AATTGGACTAA)	0.222
CATTGGACTTGGGTTCTAACCTGTTGCTT (site CATTGGACTAA)	0.371
CATTGGACTTGGGTTCTAACCTGTTGCTT (site GATTGGACTAA)	0.023
CATTGGACTTGGGTTCTAACCTGTTGCTT (site TATTGGACTAA)	0.111
CATTGTACTTGGGTTCTAACCTGTTGCTA (site CATCGGACTTA)	0.104
CATTGTACTTGGGTTCTAACCTGTTGCTA (site CATTGTACTTA)	0.457
CCAAAGACTTGGGTTCTAACCTGTTGCAT (site CCAAAGACTAT)	0.523
CCAAAGACTTGGGTTCTAACCTGTTGCAT (site CTAAAGACTGT)	0.334
CCAACCGCTTGGGTTCTAACCTGTTGCCT (site CAAACCGCTAG)	0.0169
CCAACCGCTTGGGTTCTAACCTGTTGCCT (site CCAACCGCTAG)	0.423
CCAACCGCTTGGGTTCTAACCTGTTGCCT (site CGAACCGCTAG)	0.043
CCAACCGCTTGGGTTCTAACCTGTTGCCT (site CTAACCGCTAG)	0.0644

From the supplement of paper PMC11208160
